# From the supplement of paper PMC11451515
# Tested on: P12-Ichikawa
# Assay: cell viability relative to DMSO control; higher = less cytotoxic
# Settings: 48 h
# Procedure, shortened: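 Viability, reported as a per-plate percentage of DMSO wells with cell-free wells as background, came from CellTiter-Glo One luminescence. Reading took place after 48 h at 37°C. Before that, NOMO1 or SEM (500 cells/well) or P12-Ichikawa (1000 cells/well) leukemia cells, adapted for at least four passages in each medium, were seeded in 1536-well plates (5 μl) and pin-dosed with library compounds in DMSO, 47 μM to 0.79 nM over 11 threefold points.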
# [1] = HPLM + 10% dialyzed FBS, 0.000781 µM
# [2] = HPLM + 10% dialyzed FBS, 0.00234 µM
# [3] = HPLM + 10% dialyzed FBS, 0.00702 µM
# [4] = HPLM + 10% dialyzed FBS, 0.0211 µM
# [5] = HPLM + 10% dialyzed FBS, 0.0632 µM
# [6] = HPLM + 10% dialyzed FBS, 0.19 µM
# [7] = HPLM + 10% dialyzed FBS, 0.569 µM
# [8] = HPLM + 10% dialyzed FBS, 1.71 µM
# [9] = HPLM + 10% dialyzed FBS, 5.12 µM
# [10] = HPLM + 10% dialyzed FBS, 15.4 µM
# [11] = HPLM + 10% dialyzed FBS, 46.1 µM
# [12] = RPMI 5 mM glucose + 10% FBS, 0.000781 µM
# [13] = RPMI 5 mM glucose + 10% FBS, 0.00234 µM
# [14] = RPMI 5 mM glucose + 10% FBS, 0.00702 µM
# [15] = RPMI 5 mM glucose + 10% FBS, 0.0211 µM
# [16] = RPMI 5 mM glucose + 10% FBS, 0.0632 µM
# [17] = RPMI 5 mM glucose + 10% FBS, 0.19 µM
# [18] = RPMI 5 mM glucose + 10% FBS, 0.569 µM
# [19] = RPMI 5 mM glucose + 10% FBS, 1.71 µM
# [20] = RPMI 5 mM glucose + 10% FBS, 5.12 µM
# [21] = RPMI 5 mM glucose + 10% FBS, 15.4 µM
# [22] = RPMI 5 mM glucose + 10% FBS, 46.1 µM
# [23] = RPMI 5 mM glucose + 10% dialyzed FBS, 0.000781 µM
# [24] = RPMI 5 mM glucose + 10% dialyzed FBS, 0.00234 µM
# [25] = RPMI 5 mM glucose + 10% dialyzed FBS, 0.00702 µM
# [26] = RPMI 5 mM glucose + 10% dialyzed FBS, 0.0211 µM
# [27] = RPMI 5 mM glucose + 10% dialyzed FBS, 0.0632 µM
# [28] = RPMI 5 mM glucose + 10% dialyzed FBS, 0.19 µM
# [29] = RPMI 5 mM glucose + 10% dialyzed FBS, 0.569 µM
# [30] = RPMI 5 mM glucose + 10% dialyzed FBS, 1.71 µM
# [31] = RPMI 5 mM glucose + 10% dialyzed FBS, 5.12 µM
# [32] = RPMI 5 mM glucose + 10% dialyzed FBS, 15.4 µM
# [33] = RPMI 5 mM glucose + 10% dialyzed FBS, 46.1 µM
Structure (SMILES),cell viability [1] [%],cell viability [2] [%],cell viability [3] [%],cell viability [4] [%],cell viability [5] [%],cell viability [6] [%],cell viability [7] [%],cell viability [8] [%],cell viability [9] [%],cell viability [10] [%],cell viability [11] [%],cell viability [12] [%],cell viability [13] [%],cell viability [14] [%],cell viability [15] [%],cell viability [16] [%],cell viability [17] [%],cell viability [18] [%],cell viability [19] [%],cell viability [20] [%],cell viability [21] [%],cell viability [22] [%],cell viability [23] [%],cell viability [24] [%],cell viability [25] [%],cell viability [26] [%],cell viability [27] [%],cell viability [28] [%],cell viability [29] [%],cell viability [30] [%],cell viability [31] [%],cell viability [32] [%],cell viability [33] [%]
CCNC(=O)Nc1ccc(Oc2ncnc(N)c2/C=N/OC)cc1Cl,107,114,107,116,123,119,119,118,106,101,120,111,113,117,117,121,128,126,121,117,111,131,106,116,119,122,124,123,118,122,119,107,107
CN(C)CCCC1(c2ccc(F)cc2)OCc2cc(C#N)ccc21 (configuration not stated),98.8,96.8,95.5,90.1,95.1,94.8,91.8,99.9,69.7,87.7,74.7,91,83.8,88.2,91.1,96.4,89.7,87.1,85.8,83.2,82.5,74.3,90.6,97.3,91.1,92.7,94.4,92.3,89.3,91.9,78.5,80.2,78.4
Cc1ccc([C@@H]2O[C@H](CO)[C@@H](O)[C@H](O)[C@H]2O)cc1Cc1ccc(-c2ccc(F)cc2)s1,119,112,119,116,126,127,126,127,127,125,90.3,118,121,135,130,129,132,128,126,131,125,77.7,114,117,118,121,132,132,134,131,118,120,69.9
CCN(CC)CCNC(=O)c1c(C)[nH]c(/C=C2\C(=O)Nc3ccc(F)cc32)c1C,106,102,106,103,104,36.8,21.5,6.34,9.77,3.45,2.39,106,105,114,103,118,58.8,34.1,12.6,14.6,4.54,2.44,114,113,109,112,113,51.3,31,12.2,14.3,4.09,2.75
CN1CCc2c(c3ccccc3n2Cc2ccc(C(=O)NO)cc2)C1,84.8,83.9,87.7,89.6,91.5,85,89.6,83.6,87.5,68,66.9,81,77.4,78.6,80.7,84.1,73.1,79.9,83.4,84.2,64.1,56.8,82.2,81.3,83.1,78.4,81.9,78,83.3,77.8,86.5,63.3,68.1
CNC(=O)c1ccc2c(c1)NC(=O)/C2=C(\Nc1cccc(CN(C)C)c1)c1ccccc1,92.9,97.2,98.5,99.8,100,101,98.9,89.1,35.8,87.6,0.763,87.3,98.2,97.3,105,102,101,103,92.5,36.5,83.5,1.21,86.4,95.6,108,101,102,101,103,97.5,35.6,81.8,1.03
NC(=O)c1cccc(-c2cc(Nc3ccc(OC(F)(F)F)cc3)ncn2)c1,101,96.4,98.5,101,109,104,105,102,97,99.3,89.5,102,97.7,98,94.2,105,107,105,98.7,91.5,96.1,80.3,99.5,85.7,97.1,91.9,111,104,96.1,98.8,100,95.8,81.5
CC(C)(N)C(=O)N[C@H](COCc1ccccc1)C(=O)N1CCC2(CC1)CN([S+](C)(=O)[O-])c1ccccc12,–,–,–,–,–,–,–,–,–,–,–,–,–,–,–,–,–,–,–,–,–,–,124,122,141,126,125,124,123,114,109,91.8,20.3
